# Data reported in PMC4154066 (Chemical research in toxicology, 2013).
# What was measured:
# [1] = system: mitochondrial membrane potential in HepG2 cells; test: MMP assay, powder compound confirmation, fluorescence plate reader; type: cell-based, Human
# [2] = system: HepG2 cells; test: Oxygen consumption rate; type: cell-based, Human; conditions: for Relative percentage OCR 30 Sec: HepG2, 30 sec after compound at its MMP IC50; for Relative percentage OCR 30 Sec / Relative percentage OCR 1 h: basal OCR = 100%, mean ± SD; for Relative percentage OCR 1 h: HepG2, 1 h after compound at its MMP IC50; for Effect on OCR / FCCP-uncoupled OCR (in words): HepG2, compound at its MMP IC50, 30 sec and 1 h, then FCCP
# [3] = system: HepG2 cells; test: cells; type: cell-based, Human
# [4] = system: caspase 9; conditions: HepG2, 5 h; cited from earlier work
# [5] = system: caspase 3/7; conditions: HepG2, 16 h; cited from earlier work
Structure (SMILES),"Compound potency (IC50) Fluorescence readout 5 h ([1]; HepG2, powder compound confirmation, 5 h, mean ± SD, 4 independent experiments)","Emax ([1]; Homo sapiens, HepG2, 5 h, read-out: efficacy (maximal response))",Relative percentage OCR 30 Sec [2],Relative percentage OCR 1 h [2],Effect on OCR / FCCP-uncoupled OCR (in words) [2],"Compound potency (IC50) LDH Release 1 h ([3]; HepG2, 1 h treatment, mean ± SD, 3 independent experiments)","Compound potency (IC50) LDH Release 5 h ([3]; HepG2, 5 h treatment, mean ± SD, 3 independent experiments)","IC50 ([3]; Homo sapiens, HepG2, 5 h, read-out: Compound potency (IC50) LDH Release 5 h)",activation of caspase 9 [4],induction of caspase 3/7 [5]
COc1cc(C2Oc3cc([C@H]4Oc5cc(O)cc(O)c5C(=O)[C@@H]4O)ccc3OC2CO)ccc1O (stereo partly shown) [Silibinin],weakly active,38.1%,92.67 ± 0.69%,95.66 ± 0.46%,significantly suppressed the FCCP uncoupled rates,–,–,–,–,–
CN(C)c1ccc(C(=C2C=CC(=[N+](C)C)C=C2)c2ccc(N(C)C)cc2)cc1 [Hexamethyl-p-rosaniline chloride],–,–,132.56 ± 3.88%,105.01 ± 1.65%,immediate uncoupling,Inconclusive,cytotoxic,56.1 µM,seems to activate caspase 9,induced caspase 3/7
